Like-named read-outs stand apart in the source and are kept apart here.
Assays:
[1] = biological target: HPK1 (Homo sapiens, UniProt Q92918); experiment: HPK1 Biochemical Assay (ADP-Glo luminescence; low ATP 10 μM or high ATP 200 μM)
[2] = test system: p-SLP-76 (Ser376) in Jurkat cells; experiment: pSLP76 Cellular Assay (AlphaLISA SureFire Ultra p-SLP-76 (Ser376), anti-CD3 activated Jurkat cells); assay type: cell-based; conditions: read-out: Cellular Potency
Summary of the method: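 Jurkat cells, serum-starved overnight in Opti-MEM then in HBSS, preincubated 1 h at 37 °C with 22-point 2-fold compound dilutions, then stimulated with anti-CD3 (0.025 mg/ml added solution) for 45 min. Lysate p-SLP-76 (Ser376) measured by AlphaLISA at 570 nm; IC50 from 4-parameter logistic fit.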

[3] = 2 nM HPK1, 10 μM ATP, read-out: Biochemical Potency (low ATP)
[4] = Homo sapiens, Jurkat cells, anti-CD3 stimulation, pSLP76
[5] = HPK1 ADP-Glo assay, high ATP (200 μM ATP, 5 nM HPK1), read-out: Biochemical Potency (high ATP)
[6] = Homo sapiens, pSLP76 (Ser376) AlphaLISA, anti-CD3 activated Jurkat cells
[7] = HPK1 ADP-Glo assay, low ATP (10 μM ATP, 2 nM HPK1), read-out: Biochemical Potency (low ATP)

Chain of HPK1 (Q92918 whole entry, species assumed): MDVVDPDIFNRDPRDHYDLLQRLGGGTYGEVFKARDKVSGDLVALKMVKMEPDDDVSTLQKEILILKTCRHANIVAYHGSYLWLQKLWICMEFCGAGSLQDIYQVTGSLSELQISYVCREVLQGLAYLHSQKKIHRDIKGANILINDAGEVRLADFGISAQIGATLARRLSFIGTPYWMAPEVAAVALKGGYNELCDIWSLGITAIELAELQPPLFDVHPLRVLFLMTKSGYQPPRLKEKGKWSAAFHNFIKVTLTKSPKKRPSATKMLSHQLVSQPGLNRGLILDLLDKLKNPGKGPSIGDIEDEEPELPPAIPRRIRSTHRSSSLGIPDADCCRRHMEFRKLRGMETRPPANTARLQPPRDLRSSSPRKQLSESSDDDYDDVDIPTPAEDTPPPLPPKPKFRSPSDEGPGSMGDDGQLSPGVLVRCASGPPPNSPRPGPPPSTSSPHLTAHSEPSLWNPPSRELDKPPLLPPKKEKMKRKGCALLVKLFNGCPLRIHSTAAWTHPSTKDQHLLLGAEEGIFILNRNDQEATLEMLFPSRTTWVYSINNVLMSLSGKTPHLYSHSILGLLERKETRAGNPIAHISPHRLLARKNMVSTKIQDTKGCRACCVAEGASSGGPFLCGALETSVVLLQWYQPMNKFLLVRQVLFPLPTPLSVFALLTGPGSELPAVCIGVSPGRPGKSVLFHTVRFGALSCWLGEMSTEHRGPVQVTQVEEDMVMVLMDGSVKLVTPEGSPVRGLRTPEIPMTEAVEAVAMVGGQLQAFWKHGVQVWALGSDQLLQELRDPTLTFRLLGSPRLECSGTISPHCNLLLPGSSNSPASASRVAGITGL

Row | IC50 [1, 3] | IC50 [2, 4] | IC50 [1, 5] | IC50 [2, 6] | Structure (SMILES) | also measured
1 | < 100 nM | < 100 nM | – | – | Cc1cc(Nc2cc3nc(-c4cccnc4)sc3cn2)nc(O[C@H]2CCNC2)c1 [Example 167, 4-Methyl-N-[2-(pyridin-3-yl)-[1,3]thiazolo[5,4-c]pyridin-6-yl]-6-[(3S)-pyrrolidin-3-yloxy]pyridin-2-amine] | –
2 | – | – | < 100 nM | 100 to 1000 nM | CCN1C[C@@H]2C[C@H]1CN2c1nc(Nc2cc3nc(-c4cccc(C(=O)N5CCC(F)CC5)c4)sc3cn2)ccc1C [Example 321] | –
3 | – | – | < 100 nM | 100 to 1000 nM | CCN1C[C@@H]2C[C@H]1CN2c1nc(C)cc(Nc2cc3nc(-c4cncc(N5C[C@H]6COC[C@H]6C5)c4)sc3cn2)n1 [Example 472] | –
4 | – | – | < 100 nM | < 100 nM | CCN1C[C@@H]2C[C@H]1CN2c1nc(C)cc(Nc2cc3nc(-c4cccc(C(=O)N5CC[C@H](C)C5)c4)sc3cn2)n1 [Example 533] | –
5 | < 100 nM | 100 to 1000 nM | – | – | CN(C)Cc1nc(Nc2cc3nc(-c4cccnc4)sc3cn2)ccc1N1CCOCC1 [Example 6, 6-[(Dimethylamino)methyl]-5-(morpholin-4-yl)-N-[2-(pyridin-3-yl)-[1,3]thiazolo[5,4-c]pyridin-6-yl]pyridin-2-amine] | –
6 | – | – | < 100 nM | 100 to 1000 nM | Cc1cc(Nc2cc3nc(-c4cncc(N5CCOCC5)c4)sc3cn2)nc(N2C[C@@H]3C[C@H]2CN3CCO)n1 [Example 477] | –
7 | < 100 nM | 100 to 1000 nM | – | – | CN(C)C(=O)c1cccc(-c2nc3cc(Nc4cccc(N5C[C@@H]6C[C@H]5CN6C)n4)ncc3s2)c1 [Example 137, N,N-Dimethyl-3-[6-({6-[(1S,4S)-5-methyl-2,5-diazabicyclo[2.2.1]heptan-2-yl]pyridin-2-yl}amino)-[1,3]thiazolo[5,4-c]pyridin-2-yl]benzamide] | –
8 | – | – | < 100 nM | < 100 nM | Cc1cc(Nc2cc3nc(-c4cc(C(=O)N(C)C)cc(C(C)C)c4)sc3cn2)nc(N2C[C@@H]3C[C@H]2CN3CCO)n1 [Example 551] | –
9 | < 100 nM | 1000 to 5000 nM | – | – | CN1C[C@@H]2C[C@H]1CN2c1nccc(Nc2cc3nc(-c4cccc(NS(C)(=O)=O)c4)sc3cn2)n1 [Example 286, N-{3-[6-({2-[(1S,4S)-5-methyl-2,5-diazabicyclo[2.2.1]heptan-2-yl]pyrimidin-4-yl}amino)-[1,3]thiazolo[5,4-c]pyridin-2-yl]phenyl}methanesulfonamide] | IC50 ([1]; 5 nM HPK1, 200 μM ATP, read-out: Biochemical Potency (high ATP)): < 100 nM
10 | < 100 nM | 1000 to 5000 nM | – | – | Cc1cccnc1-c1nc2cc(Nc3nc(N4C[C@@H]5C[C@H]4CN5C)ccc3F)ncc2s1 [Example 109, 3-Fluoro-6-[(1S,4S)-5-methyl-2,5-diazabicyclo[2.2.1]heptan-2-yl]-N-[2-(3-methylpyridin-2-yl)-[1,3]thiazolo[5,4-c]pyridin-6-yl]pyridin-2-amine] | –
11 | – | – | < 100 nM | 100 to 1000 nM | Cc1cc(Nc2cc3nc(-c4ccnc(N5C[C@H]6COC[C@H]6C5)c4)sc3cn2)nc(N2C[C@@H]3C[C@H]2CN3CCO)n1 [Example 452] | –
12 | < 100 nM | 100 to 1000 nM | – | – | c1cncc(-c2nc3cc(Nc4ccc(C5CCOC5)c(CN5CCCC5)n4)ncc3s2)c1 (stereo not drawn) [Example 254, 5-(Oxolan-3-yl)-N-[2-(pyridin-3-yl)-[1,3]thiazolo[5,4-c]pyridin-6-yl]-6-[(pyrrolidin-1-yl)methyl]pyridin-2-amine] | –
13 | < 100 nM | 100 to 1000 nM | – | – | c1cncc(-c2nc3cc(Nc4ccc([C@@H]5CCOC5)c(CN5CCCC5)n4)ncc3s2)c1 (single isomer, unassigned) [Example 261, 5-[(3R or 3S)—Oxolan-3-yl]-N-[2-(pyridin-3-yl)-[1,3]thiazolo[5,4-c]pyridin-6-yl]-6-[(pyrrolidin-1-yl)methyl]pyridin-2-amine] | –
14 | – | – | < 100 nM | < 100 nM | CC(C)(O)c1cccc(-c2nc3cc(Nc4cnc(C5CCOCC5)c(N5C[C@@H]6C[C@H]5CN6)n4)ncc3s2)c1 [Example 509] | IC50 [1, 7]: < 100 nM
15 | < 100 nM | 1000 to 5000 nM | – | – | CN(C)Cc1nc(Nc2cc3nc(-c4c(F)cccc4F)sc3cn2)ccc1N1CCC(O)CC1 [Example 12, 1-(6-{[2-(2,6-Difluorophenyl)-[1,3]thiazolo[5,4-c]pyridin-6-yl]amino}-2-[(dimethylamino)methyl]pyridin-3-yl)piperidin-4-ol] | –
16 | – | – | < 100 nM | < 100 nM | Cc1cc(Nc2cc3nc(-c4cccc(C(=O)NC5CCCC5)c4)sc3cn2)nc(N2C[C@@H]3C[C@H]2CN3CCO)n1 [Example 545] | –
17 | – | – | < 100 nM | 100 to 1000 nM | Cc1cc(Nc2cc3nc(-c4cncc(C5CC5)c4)sc3cn2)nc(N2C[C@@H]3C[C@H]2CN3CCO)n1 [Example 361] | –
18 | – | – | < 100 nM | 100 to 1000 nM | Cc1cc(Nc2cc3nc(-c4cccc(C(=O)N(C)C)c4)sc3cn2)nc(N2C[C@@H]3C[C@H]2CN3Cc2cnn(C)c2)n1 [Example 494] | –

Row | IC50 [1, 3] | IC50 [2, 4] | IC50 [1, 5] | IC50 [2, 6] | Structure (SMILES) | also measured
19 | < 100 nM | 100 to 1000 nM | – | – | Cc1cc(-c2nc3cc(Nc4ccc(C5CCOCC5)c(CN[C@H]5CCOC5)n4)ncc3s2)ccn1 [Example 221, N-[2-(2-Methylpyridin-4-yl)-[1,3]thiazolo[5,4-c]pyridin-6-yl]-5-(oxan-4-yl)-6-({[(3S)-oxolan-3-yl]amino}methyl)pyridin-2-amine] | –
20 | – | – | < 100 nM | 1000 to 5000 nM | CCN(CC)S(=O)(=O)c1cc(C)cc(-c2nc3cc(Nc4cc(C)nc(N5C[C@@H]6C[C@H]5CN6CCO)n4)ncc3s2)c1 [Example 343] | –
21 | < 100 nM | > 5000 nM | – | – | Cc1ccc(Nc2cc3nc(-c4ncccc4C)sc3cn2)nc1CN1CCC[C@H]1C [Example 44, 5-Methyl-N-[2-(3-methylpyridin-2-yl)-[1,3]thiazolo[5,4-c]pyridin-6-yl]-6-{[(2R)-2-methylpyrrolidin-1-yl]methyl}pyridin-2-amine] | –
22 | – | – | < 100 nM | 100 to 1000 nM | OCCN1C[C@@H]2C[C@H]1CN2c1nc(Nc2cc3nc(-c4cnn(CC5CC5)c4)sc3cn2)ccc1F [Example 424] | –
23 | – | – | – | 1000 to 5000 nM | Cc1cccnc1-c1nc2cc(Nc3ccc4c(n3)CNCC4)ncc2s1 [Example 300, N-[2-(3-methylpyridin-2-yl)-[1,3]thiazolo[5,4-c]pyridin-6-yl]-5,6,7,8-tetrahydro-1,7-naphthyridin-2-amine] | IC50 [1, 7]: < 100 nM
24 | – | – | < 100 nM | 100 to 1000 nM | Cc1cc(Nc2cc3nc(-c4cccc(C(C)(C)C(=O)N(C)C)c4)sc3cn2)nc(N2C[C@@H]3C[C@H]2CN3C)n1 [Example 394] | –
25 | – | – | < 100 nM | – | Cc1cc(Nc2cc3nc(-c4cccc(C(=O)N(C)[C@H]5CCCOC5)c4)sc3cn2)nc(N2C[C@@H]3C[C@H]2CN3CCO)n1 [Example 543] | IC50 ([2]; pSLP76 (Ser376) AlphaLISA, anti-CD3 activated Jurkat cells): < 100 nM
26 | – | – | < 100 nM | < 100 nM | CCN1C[C@@H]2C[C@H]1CN2c1nc(C)cc(Nc2cc3nc(-c4ccc(F)c(C(=O)NC5CCCC5)c4)sc3cn2)n1 [Example 513] | –
27 | – | – | < 100 nM | 100 to 1000 nM | CCN1C[C@@H]2C[C@H]1CN2c1nc(C)cc(Nc2cc3nc(-c4cccc(C(=O)N(C)C5CCOCC5)c4)sc3cn2)n1 [Example 528] | –
28 | < 100 nM | 100 to 1000 nM | – | – | Cc1cccnc1-c1nc2cc(Nc3ccc(N4CCOCC4)c(CN4CCCC4)n3)ncc2s1 [Example 63, N-[2-(3-Methylpyridin-2-yl)-[1,3]thiazolo[5,4-c]pyridin-6-yl]-5-(morpholin-4-yl)-6-[(pyrrolidin-1-yl)methyl]pyridin-2-amine] | –
29 | – | – | < 100 nM | < 100 nM | Cc1cc(Nc2cc3nc(-c4cncc(-c5ncccc5C)c4)sc3cn2)nc(N2C[C@@H]3C[C@H]2CN3CCO)n1 [Example 318, 2-[(1S,4S)-5-{6-methyl-4-[2-(3-methyl-2,3′-bipyridyl-5′-yl)-3-thia-1,5-diaza-6-indenylamino]-2-pyrimidinyl}-2,5-diazabicyclo[2.2.1]hept-2-yl]ethanol] | –
30 | < 100 nM | < 100 nM | – | – | CN1C[C@@H]2C[C@H]1CN2c1cccc(Nc2cc3nc(-c4nccn4C)sc3cn2)n1 [Example 108, N-[2-(1-Methyl-1H-imidazol-2-yl)-[1,3]thiazolo[5,4-c]pyridin-6-yl]-6-[(1S,4S)-5-methyl-2,5-diazabicyclo[2.2.1]heptan-2-yl]pyridin-2-amine] | –
31 | – | – | < 100 nM | 100 to 1000 nM | Cc1cc(Nc2cc3nc(-c4cnn5c4COCC5)sc3cn2)nc(N2C[C@@H]3C[C@H]2CN3C)n1 [Example 385] | –
32 | – | – | < 100 nM | 1000 to 5000 nM | Cc1cc(Nc2cc3nc(-c4ccncc4O[C@H]4CCOC4)sc3cn2)nc(N2C[C@@H]3C[C@H]2CN3C)n1 [Example 481] | –
33 | – | – | 100 to 1000 nM | 1000 to 5000 nM | Cc1cc(Nc2cc3nc(-c4cccc5c4CCCN5S(C)(=O)=O)sc3cn2)nc(N2C[C@@H]3C[C@H]2CN3C)n1 [Example 312, N-[2-(1-methanesulfonyl-1,2,3,4-tetrahydroquinolin-5-yl)-[1,3]thiazolo[5,4-c]pyridin-6-yl]-6-methyl-2-[(1S,4S)-5-methyl-2,5-diazabicyclo[2.2.1]heptan-2-yl]pyrimidin-4-amine] | –
34 | – | – | < 100 nM | 100 to 1000 nM | CCN1C[C@@H]2C[C@H]1CN2c1nc(C)cc(Nc2cc3nc(-c4cccc(C(=O)N[C@H](C)c5ccccc5)c4)sc3cn2)n1 [Example 516] | –
35 | – | – | < 100 nM | 1000 to 5000 nM | Cc1cc(Nc2cc3nc(-c4cnn5c4CCCC5)sc3cn2)nc(N2C[C@@H]3C[C@H]2CN3C)n1 [Example 379] | –

From patent publication US12649751B2 (Arcus Biosciences, Inc., priority 2022, dated 2026)
